Reference: ChEMBL document CHEMBL4152249, “Alkoxyphenylthiazoles with broad-spectrum activity against multidrug-resistant gram-positive bacterial pathogens” (Eur J Med Chem, 2018)
Values after ≈ are worked out from the molar mass of the structure shown.

Key:
Type in all cases: functional
Staphylococcus aureus [1] = assay: Antibacterial activity against methicillin-resistant Staphylococcus aureus 2658 RCMB after 20 hrs by broth microdilution assay
Listeria monocytogenes [2] = assay: Bactericidal activity against Listeria monocytogenes ATCC 19111 incubated for 20 hrs followed by re-plating on tryptic soy agar plates at 37 degC for 18 hrs by broth microdilution assay
Staphylococcus aureus [3] = assay: Bactericidal activity against Staphylococcus aureus USA300 NRS384 incubated for 20 hrs followed by re-plating on tryptic soy agar plates at 37 degC for 18 hrs by broth microdilution assay
Enterococcus faecalis [4] = assay: Bactericidal activity against vancomycin-resistant Enterococcus faecalis ATCC 51299 incubated for 20 hrs followed by re-plating on tryptic soy agar plates at 37 degC for 18 hrs by broth microdilution assay
Streptococcus pneumoniae [5] = assay: Antibacterial activity against methicillin-resistant Streptococcus pneumoniae ATCC 700677 after 20 hrs by broth microdilution assay; conditions: ATCC 700677, 20 h
Streptococcus pneumoniae [6] = assay: Bactericidal activity against cephalosporin-resistant Streptococcus pneumoniae ATCC 51916 incubated for 20 hrs followed by re-plating on tryptic soy agar plates at 37 degC for 18 hrs by broth microdilution assay
Staphylococcus aureus [7] = assay: Antibacterial activity against Staphylococcus aureus after 20 hrs by broth microdilution assay
Staphylococcus aureus [8] = assay: Antibacterial activity against vancomycin-resistant Staphylococcus aureus VRSA10 after 20 hrs by broth microdilution assay; conditions: VRSA10, 20 h
Listeria monocytogenes [9] = assay: Antibacterial activity against Listeria monocytogenes ATCC 19111 after 20 hrs by broth microdilution assay; conditions: ATCC 19111, 20 h
Staphylococcus aureus [10] = assay: Antibacterial activity against methicillin-resistant Staphylococcus aureus NRS385 after 20 hrs by broth microdilution assay; conditions: NRS385, 20 h
Staphylococcus aureus [11] = assay: Bactericidal activity against linezolid-resistant Staphylococcus aureus NRS119 incubated for 20 hrs followed by re-plating on tryptic soy agar plates at 37 degC for 18 hrs by broth microdilution assay
Staphylococcus aureus [12] = assay: Bactericidal activity against methicillin-resistant Staphylococcus aureus NRS386 incubated for 20 hrs followed by re-plating on tryptic soy agar plates at 37 degC for 18 hrs by broth microdilution assay
Enterococcus faecium [13] = assay: Antibacterial activity against vancomycin-resistant Enterococcus faecium ATCC 700221 after 20 hrs by broth microdilution assay; conditions: ATCC 700221, 20 h
Staphylococcus aureus [14] = assay: Bactericidal activity against vancomycin-resistant Staphylococcus aureus VRSA12 incubated for 20 hrs followed by re-plating on tryptic soy agar plates at 37 degC for 18 hrs by broth microdilution assay
Streptococcus pneumoniae [15] = assay: Bactericidal activity against methicillin-resistant Streptococcus pneumoniae ATCC 700677 incubated for 20 hrs followed by re-plating on tryptic soy agar plates at 37 degC for 18 hrs by broth microdilution assay
Staphylococcus aureus [16] = assay: Bactericidal activity against vancomycin-resistant Staphylococcus aureus VRSA10 incubated for 20 hrs followed by re-plating on tryptic soy agar plates at 37 degC for 18 hrs by broth microdilution assay
Streptococcus pneumoniae [17] = assay: Antibacterial activity against cephalosporin-resistant Streptococcus pneumoniae ATCC 51916 after 20 hrs by broth microdilution assay; conditions: ATCC 51916, 20 h
Staphylococcus aureus [18] = assay: Antibacterial activity against methicillin-resistant Staphylococcus aureus NRS386 after 20 hrs by broth microdilution assay; conditions: NRS386, 20 h
Enterococcus faecalis [19] = assay: Antibacterial activity against vancomycin-resistant Enterococcus faecalis ATCC 51299 after 20 hrs by broth microdilution assay; conditions: ATCC 51299, 20 h
Staphylococcus aureus [20] = assay: Bactericidal activity against methicillin-sensitive Staphylococcus aureus NRS107 incubated for 20 hrs followed by re-plating on tryptic soy agar plates at 37 degC for 18 hrs by broth microdilution assay
Enterococcus faecium [21] = assay: Bactericidal activity against vancomycin-resistant Enterococcus faecium ATCC 700221 incubated for 20 hrs followed by re-plating on tryptic soy agar plates at 37 degC for 18 hrs by broth microdilution assay
Staphylococcus aureus [22] = assay: Bactericidal activity against methicillin-resistant Staphylococcus aureus NRS385 incubated for 20 hrs followed by re-plating on tryptic soy agar plates at 37 degC for 18 hrs by broth microdilution assay
[23] = system: Staphylococcus epidermidis; assay: Antibacterial activity against methicillin-resistant Staphylococcus epidermidis NRS101 after 20 hrs by broth microdilution assay; conditions: NRS101, 20 h
Staphylococcus aureus [24] = assay: Antibacterial activity against vancomycin-resistant Staphylococcus aureus VRSA12 after 20 hrs by broth microdilution assay; conditions: VRSA12, 20 h
Staphylococcus aureus [25] = assay: Antibacterial activity against methicillin-resistant Staphylococcus aureus after 20 hrs by broth microdilution assay
Staphylococcus aureus [26] = assay: Bactericidal activity against Staphylococcus aureus USA400 NRS123 incubated for 20 hrs followed by re-plating on tryptic soy agar plates at 37 degC for 18 hrs by broth microdilution assay
[27] = system: Staphylococcus epidermidis; assay: Bactericidal activity against methicillin-resistant Staphylococcus epidermidis NRS101 incubated for 20 hrs followed by re-plating on tryptic soy agar plates at 37 degC for 18 hrs by broth microdilution assay

With `CCCCCCCCOc1ccc(-c2nc(C)c(-c3ccnc(NC)n3)s2)cc1` the MIC (Staphylococcus aureus [1]) was over 50 µg/mL.
`CCCCCCCOc1ccc(-c2nc(C)c(-c3ccnc(NC(=N)N4CCOCC4)n3)s2)cc1` was tested, and the MIC (Staphylococcus aureus [1]) was 6.25 µg/mL (≈ 12.6 µM).
`CCCCCCCCOc1ccc(-c2nc(C)c(-c3ccnc(N)n3)s2)cc1` was tested, and the MIC (Staphylococcus aureus [1]) was over 50 µg/mL.
Compound `CCCCCCCOc1ccc(-c2nc(C)c(-c3ccnc(NC(=N)NC)n3)s2)cc1` has an MIC (Staphylococcus aureus [1]) of over 50 µg/mL.
`CCCCCCCCOc1ccc(-c2nc(C)c(-c3ccnc(NC(=N)N4CCOCC4)n3)s2)cc1` was tested, and the MIC (Staphylococcus aureus [1]) was 6.25 µg/mL (≈ 12.3 µM).
With `CCCCCCCOc1ccc(-c2nc(C)c(-c3ccnc(NC)n3)s2)cc1` the MIC (Staphylococcus aureus [1]) was over 50 µg/mL.
`CCCCCCCOc1ccc(-c2nc(C)c(-c3ccnc(NN)n3)s2)cc1` showed an MBC (Listeria monocytogenes [2]) of over 64 µg/mL, an MBC (Staphylococcus aureus [3]) of over 64 µg/mL and an MBC (Enterococcus faecalis [4]) of over 64 µg/mL. For the same compound, the MIC (Streptococcus pneumoniae [5]) was over 64 µg/mL, the MBC (Streptococcus pneumoniae [6]) was over 64 µg/mL and the MIC (Staphylococcus aureus [7]) was 16 µg/mL (≈ 40.2 µM). It also gave an MIC (Staphylococcus aureus [8]) of 64 µg/mL (≈ 161 µM), an MIC (Listeria monocytogenes [9]) of 16 µg/mL (≈ 40.2 µM) and an MIC (Staphylococcus aureus [10]) of 32 µg/mL (≈ 80.5 µM). For the same compound, the MBC (Staphylococcus aureus [11]) was 64 µg/mL (≈ 161 µM), the MBC (Staphylococcus aureus [12]) was over 64 µg/mL and the MIC (Staphylococcus aureus [1]) was 3.12 µg/mL (≈ 7.85 µM). The MIC (Enterococcus faecium [13]) was 64 µg/mL (≈ 161 µM), the MBC (Staphylococcus aureus [14]) was over 64 µg/mL and the MBC (Streptococcus pneumoniae [15]) was over 64 µg/mL. For the same compound, the MBC (Staphylococcus aureus [16]) was over 64 µg/mL, the MIC (Streptococcus pneumoniae [17]) was over 64 µg/mL and the MIC (Staphylococcus aureus [18]) was 32 µg/mL (≈ 80.5 µM). It also gave an MIC (Enterococcus faecalis [19]) of over 64 µg/mL, an MBC (Staphylococcus aureus [20]) of over 64 µg/mL and an MBC (Enterococcus faecium [21]) of over 64 µg/mL. For the same compound, the MBC (Staphylococcus aureus [22]) was 64 µg/mL (≈ 161 µM), the MIC [23] was 64 µg/mL (≈ 161 µM) and the MIC (Staphylococcus aureus [24]) was 64 µg/mL (≈ 161 µM). For the same compound, the MIC (Staphylococcus aureus [25]) was 32 µg/mL (≈ 80.5 µM), the MBC (Staphylococcus aureus [26]) was over 64 µg/mL and the MBC [27] was 64 µg/mL (≈ 161 µM).
With `CCCCCCCCOc1ccc(-c2nc(C)c(-c3ccnc(NC(=N)NC)n3)s2)cc1` the MIC (Staphylococcus aureus [1]) was over 50 µg/mL.
With `CN[C@H](CC(C)C)C(=O)N[C@H]1C(=O)N[C@@H](CC(N)=O)C(=O)N[C@H]2C(=O)N[C@H]3C(=O)N[C@H](C(=O)N[C@H](C(=O)O)c4cc(O)cc(O)c4-c4cc3ccc4O)[C@H](O)c3ccc(c(Cl)c3)Oc3cc2cc(c3O[C@@H]2O[C@H](CO)[C@@H](O)[C@H](O)[C@H]2O[C@H]2C[C@](C)(N)[C@H](O)[C@H](C)O2)Oc2ccc(cc2Cl)[C@H]1O` [VANCOMYCIN] the MBC (Staphylococcus aureus [3]) was 1 µg/mL (≈ 0.69 µM), the MBC (Enterococcus faecalis [4]) was 64 µg/mL (≈ 44.2 µM) and the MIC (Streptococcus pneumoniae [5]) was 2 µg/mL (≈ 1.38 µM). It also gave an MIC (Staphylococcus aureus [8]) of over 64 µg/mL, an MIC (Listeria monocytogenes [9]) of 1 µg/mL (≈ 0.69 µM) and an MBC (Staphylococcus aureus [11]) of 1 µg/mL (≈ 0.69 µM). For the same compound, the MBC (Staphylococcus aureus [12]) was 1 µg/mL (≈ 0.69 µM), the MIC (Staphylococcus aureus [1]) was 1.56 µg/mL (≈ 1.08 µM) and the MIC (Enterococcus faecium [13]) was over 64 µg/mL. The MBC (Staphylococcus aureus [14]) was over 64 µg/mL, the MBC (Staphylococcus aureus [16]) was over 64 µg/mL and the MIC (Streptococcus pneumoniae [17]) was 2 µg/mL (≈ 1.38 µM). For the same compound, the MIC (Enterococcus faecalis [19]) was 16 µg/mL (≈ 11 µM), the MBC (Staphylococcus aureus [20]) was 2 µg/mL (≈ 1.38 µM) and the MBC (Enterococcus faecium [21]) was over 64 µg/mL. The MBC (Staphylococcus aureus [22]) was 1 µg/mL (≈ 0.69 µM), the MIC (Staphylococcus aureus [24]) was over 64 µg/mL and the MBC (Staphylococcus aureus [26]) was 1 µg/mL (≈ 0.69 µM).
`CCCCCCCCOc1ccc(-c2nc(C)c(-c3ccnc(NN)n3)s2)cc1` was tested, and the MIC (Staphylococcus aureus [1]) was 3.12 µg/mL (≈ 7.58 µM).
